Data as given in patent US9913828B2, “Benzothiazolone compound” (Novartis AG, priority 2011, dated 2018).
pEC50: −log10 of the molar value.

Legend:
α1A AR = biological target: T1, α1A AR (Homo sapiens, UniProt P35348); test: Ca2+ FLIPR assay in human adrenergic Alpha1A CHO-K1 cell line (Test 1); format: cell-based; conditions: read-out: CHO cells EC50 α1A AR
T1 sequence (P35348 1-466): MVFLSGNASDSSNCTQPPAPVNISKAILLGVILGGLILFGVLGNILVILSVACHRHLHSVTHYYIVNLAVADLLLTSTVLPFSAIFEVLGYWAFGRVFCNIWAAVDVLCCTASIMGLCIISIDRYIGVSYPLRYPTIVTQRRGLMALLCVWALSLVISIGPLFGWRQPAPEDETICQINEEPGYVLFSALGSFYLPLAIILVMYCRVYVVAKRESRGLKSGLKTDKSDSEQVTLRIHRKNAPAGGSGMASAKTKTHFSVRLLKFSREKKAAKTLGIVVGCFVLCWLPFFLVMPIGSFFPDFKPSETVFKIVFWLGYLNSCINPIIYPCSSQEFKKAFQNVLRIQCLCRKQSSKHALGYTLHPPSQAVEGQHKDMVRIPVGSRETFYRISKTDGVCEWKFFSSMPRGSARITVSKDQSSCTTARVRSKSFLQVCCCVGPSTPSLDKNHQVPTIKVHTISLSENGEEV
Description: Compounds acting as agonists induce a transient increase of intracellular calcium. This was recorded on the FLIPR system. A measurement of the signal baseline was first recorded every second for 2 minutes before the injection of the compounds. […] Low controls (unstimulated cells) were determined with the addition of 5 μL of assay buffer.

[1] = Comparative solubilities in H2O with pH adjustment; format: physicochemical
Description: The relative solubilities of the free base form and the acetate and glycolate salt forms of Compound A were analysed and the results are show in the table below. Solutions were titrated with addition of HCl or NaOH for pH adjustment. The improved aqueous solubilities of the acetate and glycolate salt forms relative to the free base form of Compound A make the acetate and glycolate salts of Compound A more suitable for subcutaneous injection or infusion.

[2] = system: isolated rabbit sino-atrial nodes; test: Sino-atrial node beating rate in isolated rabbit right atrium
Description: New Zealand white female rabbits were killed by exsanguination after a deep anesthesia using a mixture of ketamine/xylazine, i.v. The heart was quickly removed and placed in Tyrode's solution. […] The right atrium was separated from the rest of the heart. The preparations were mounted in a tissue bath and kept at 37±0.5° C. for at least one hour stabilization. Action potentials (AP) were intracellularly recorded with a standard glass microelectrode filled with 3 M KCl, connected to a high input impedance-neutralizing amplifier (VF-180 microelectrode amplifier, Bio-Logic). […] After one hour of stabilization, compounds were added to the Tyrode's solution at the increasing concentrations, each concentration being maintained for 30 minutes. There was no wash-out between two concentrations. Electrophysiological measurements were made by analyzing action potentials during the experimental protocol at the end of the 30 minute perfusion period. The SA spontaneous frequency was evaluated by counting the number of beats every 10 seconds to express the results in number of beats per minute (bpm). Data were expressed as mean±SEM.

[3] = system: isolated Langendorff perfused rabbit hearts; test: Automaticity in isolated Langendorff perfused rabbit hearts
[4] = system: Wistar Han (W-H) IGS rats; test: Heart rate in vivo in rats after s.c. bolus; set-up: species or system rat; conditions: up to 0.3 mg/kg, compared to formoterol
Source text: Wistar Han (W-H) IGS (International Genetic Standard) rats (Crl:WI(Han)) were purchased from Charles River Laboratories. Femoral arterial and venous catheters were chronically implanted and exteriorized through a spring tether-swivel system and housed in specialized cages. Arterial catheter was connected to a pressure transducer to continuously measure pulse pressure, mean arterial pressure and heart rate, which was derived from the blood pressure signal, via a digital data acquisition system. Compounds were administered via s.c catheter implanted through the skin buttun. Values are expressed as means±SEM (n=3).

Rhesus monkeys = test: Heart rate in vivo in rhesus monkeys after single s.c. administration; set-up: species or system rhesus monkey; conditions: s.c. bolus, up to 0.03 mg/kg; compared to formoterol
Description: Rhesus monkeys, 24 females with body weight around 4 to 8 kg, were randomized into 4 groups of n=6. The animals were restrained on a chair up to 4 hours after single subcutaneous administration of compounds, and then returned to their pens. Heart rates were measured using a Surgivet V3304 device. Values are expressed as means±SEM (n=6).

Serotonin 5-HT2C = biological target: T2, Serotonin 5-HT2C (Homo sapiens, UniProt P28335); test: Aequorin agonist assay in CHO-K1 cells expressing recombinant Serotonin 5-HT2C and Gα16; format: cell-based
T2 construct: expressed in transfected cells; host or cells: CHO-K1 cells coexpressing mitochondrial apoaequorin and Gα16
T2 sequence (P28335 33-458): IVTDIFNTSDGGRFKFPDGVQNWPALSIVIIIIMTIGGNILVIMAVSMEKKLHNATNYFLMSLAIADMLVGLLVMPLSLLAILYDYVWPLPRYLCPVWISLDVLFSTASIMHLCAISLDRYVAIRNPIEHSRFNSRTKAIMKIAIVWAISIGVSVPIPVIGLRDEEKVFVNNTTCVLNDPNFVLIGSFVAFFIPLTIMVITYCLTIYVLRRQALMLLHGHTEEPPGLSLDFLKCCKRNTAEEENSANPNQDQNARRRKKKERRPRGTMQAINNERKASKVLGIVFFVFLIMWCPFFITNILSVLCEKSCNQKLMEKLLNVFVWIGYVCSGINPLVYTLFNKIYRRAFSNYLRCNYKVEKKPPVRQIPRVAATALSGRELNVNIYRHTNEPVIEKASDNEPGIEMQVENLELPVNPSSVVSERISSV
Description: CHO-K1 cells coexpressing mitochondrial apoaequorin, recombinant Serotonin 5-HT2Cne and the promiscuous G protein Gα16, grown to mid-log phase in culture media without antibiotics were detached with PBS-EDTA, centrifuged and resuspended in assay buffer (DMEM/HAM's F12 with HEPES, without phenol red+0.1% BSA protease free) at a concentration of 1×10^6 cells/ml. Cells were incubated at room temperature for at least 4 h with coelenterazine h. […] For agonist testing, 50 μL of cell suspension were mixed with 50 μL of test or reference agonist in a 96-well plate. The resulting emission of light is recorded using Hamamatsu Functional Drug Screening System 6000 (FDSS 6000) luminometer. Agonist activity of test compound was expressed as a percentage of the activity of the reference agonist at its EC100 concentration.

β2 AR = β2 AR (Homo sapiens, UniProt P07550); test: cAMP response in CHO cells stably transfected with human β2 adrenoceptor (Test 1)
β2 AR, sequence (P07550 whole entry): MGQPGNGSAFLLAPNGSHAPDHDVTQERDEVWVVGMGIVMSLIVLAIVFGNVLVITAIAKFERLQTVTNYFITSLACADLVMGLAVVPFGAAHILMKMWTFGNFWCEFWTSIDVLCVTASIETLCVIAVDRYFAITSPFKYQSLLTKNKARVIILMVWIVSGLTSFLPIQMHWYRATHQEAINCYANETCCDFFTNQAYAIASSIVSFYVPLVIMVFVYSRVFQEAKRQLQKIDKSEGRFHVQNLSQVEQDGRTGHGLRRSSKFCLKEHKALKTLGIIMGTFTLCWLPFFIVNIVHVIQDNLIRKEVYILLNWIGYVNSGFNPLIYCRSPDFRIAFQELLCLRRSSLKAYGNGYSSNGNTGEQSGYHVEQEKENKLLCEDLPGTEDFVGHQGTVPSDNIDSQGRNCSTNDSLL

Row | Structure (SMILES) | pEC50 (α1A AR) | Compound A free base solubility in H2O, Conc ([1]; pH 7.3) [µg/mL] | Compound A free base solubility in H2O, Conc ([1]; pH 7.8) [µg/mL] | Sino-Atrial node beating rate, maximum increase (n = 6) [2] | direct effects on the pacemaker activity ([3]; compared to Formoterol) | Automaticity, maximum increase (n = 3) ([3]; isolated rabbit heart) | heart rate change in rats [4] | heart rate change in rhesus monkeys (Rhesus monkeys) | fold less active on 5-HT2C when compared to the racemate or the (S) enantiomer (Serotonin 5-HT2C) | fold less active on 5-HT2C when compared to β2 AR agonist activity (Serotonin 5-HT2C; 5-HT2C EC50 versus β2 AR EC50) [fold] | pEC50 (β2 AR) | melting point
1 | CCCCOc1ccc(CC(C)(C)NC[C@H](O)c2cc(O)cc3[nH]c(=O)sc23)cc1 [Compound A, (R)-7-(2-(1-(4-butoxyphenyl)-2-methylpropan-2-ylamino)-1-hydroxyethyl)-5-hydroxybenzo[d]thiazol-2(3H)-one] | < 5.00 | <10 | <10 | +6.2% | less direct effects | +17% | less heart rate increases | less heart rate increase | over 10 fold | 50 | > 8.00 | –
2 | CCCCOc1ccc(CC(C)(C)NC[C@H](O)c2cc(O)cc3[nH]c(=O)sc23)cc1.O=C(O)CO [Compound A glycolate salt, (R)-7-(2-(1-(4-butoxyphenyl)-2-methylpropan-2-ylamino)-1-hydroxyethyl)-5-hydroxybenzo[d]thiazol-2(3H)-one glycolate salt] | – | – | – | – | – | – | – | – | – | – | – | ~ 188 °C
